Measured values from patent publication US20240287063A1, “METHIONINE ADENOSYLTRANSFERASE 2A INHIBITOR” (NANJING CHIA TAI TIANQING PHARMACEUTICAL CO., LTD., priority 2021, published 2024).
pIC50: −log10 of the molar value. Values belong to the molecule of their own block, whether it stands above or below them.

Columns and labels:
MAT2A enzyme = target: T1, MAT2A enzyme (Homo sapiens, UniProt P31153); test: Enzymatic testing method for MAT2A (Biomol Green, OD620); assay type: biochemical; details: score by IC50 for inhibiting MAT2A; read-out: MAT2A inhibition score
T1 construct: purchased BPS 71401
T1 sequence (P31153 whole entry): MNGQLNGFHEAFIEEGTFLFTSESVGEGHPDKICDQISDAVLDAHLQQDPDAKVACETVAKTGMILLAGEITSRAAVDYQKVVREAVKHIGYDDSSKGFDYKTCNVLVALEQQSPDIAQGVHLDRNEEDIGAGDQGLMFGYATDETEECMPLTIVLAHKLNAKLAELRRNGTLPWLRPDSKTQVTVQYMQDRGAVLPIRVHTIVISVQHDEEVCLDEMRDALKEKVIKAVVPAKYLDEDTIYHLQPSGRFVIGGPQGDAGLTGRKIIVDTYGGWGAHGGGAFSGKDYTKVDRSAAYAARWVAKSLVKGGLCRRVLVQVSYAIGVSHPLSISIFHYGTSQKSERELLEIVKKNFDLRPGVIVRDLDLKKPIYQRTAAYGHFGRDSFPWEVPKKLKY
Procedure: • a) A 5×MAT2A test buffer (250 mM Tris-HCl, pH 8.0; 250 mM KCl; 75 mM MgCl2; 0.025% BSA; 0.05% Brij35; 1.5 mM EDTA) was first prepared and partially diluted to 1× for later use; • b) Preparation and addition of MAT2A enzyme (BPS, 71401): the MAT2A enzyme was prepared into 3.674 ng/L by using the 1×MAT2A test buffer (1.67×, final concentration 2.20 ng/L), a BioTek (MultiFlo FX) automatic liquid separator was used, 15 μL of 1.67×MAT2A enzyme solution was added to compound test wells and negative control wells respectively, and 15 μL of 1×MAT2A test buffer was added to blank control wells; • c) Preparation and addition of a compound: a compound to be tested was diluted with DMSO from 10 mM stock solution to 100 μM, a positive drug AGI-24512 was diluted under the same conditions, and the diluted compound and positive drug were automatically sprayed into each well by using a Tecan compound titrator (D300e) according to preset concentration gradients, where the spray volume was little and negligible. The concentration gradient was initially 1 μM, the dilution was implemented by ½ log, and a total of 8 gradients were set. Centrifugation at 2500 rpm for 30 s and incubation at 25° C. for 30 min were performed; • d) Preparation of ATP: 10 mM ATP (Sigma, A7699) was diluted with 1×MAT2A test buffer to 700 μM for later use; • e) Preparation and addition of a substrate and ATP mixture: 5×MAT2A test buffer, 3 μL/well; 750 μM L-methionine (Adamas, 01100469), 2.5 μL/well; 700 μM ATP, 2.5 μL/well; and double distilled water, 2 μL/well. A total amount of required mixture was prepared according to the number of test wells, and 10 μL of the mixture was added to each well by using the BioTek (MultiFlo FX) automatic liquid separator, followed by centrifugation at 2500 rpm for 30 s and reaction at 25° C. for 150 min; • f) Addition of Biomol Green detection reagent: 50 μL of Biomol Green (Enzo, BML-AK111) was added to each well by using the BioTek (MultiFlo FX) automatic liquid separator, followed by centrifugation at 2500 rpm for 30 s and incubation at 25° C. for 20 minutes; • g) After the reaction, OD620 values were read by using a Perkin Elmer (Envision 2105) multifunctional plate reader.
A formula for calculating an inhibition rate was as follows: […]
Wherein, • % Inhibition: inhibition rate % • ODsample: OD620 value in a sample well; • ODmin: representing a mean OD620 value of blank control wells without the enzyme or compound to be tested; • ODmax: representing a mean OD620 value of negative control wells with the enzyme and without the compound.
Then a dose-effect curve log(inhibitor) vs. response-Variable slope was fitted by usingGraphPad Prism 5 software to obtain an IC50 value of compound for MAT2A enzyme inhibition.

HCT116 MTAP −/− cells = test: Cell testing method: HCT116 MTAP-/- cell proliferation inhibition (CellTiter-Glo, 120 h); assay type: cell-based; details: Homo sapiens, HCT-116; score by IC50 for inhibiting HCT116 MTAP−/− cells
Procedure: HCT116 MTAP −/− cells (purchased from Horizon Discovery): human colorectal cancer cell lines with MTAP gene deletion were cultured in medium RPMI 1640+10% FBS (Fetal bovine serum). On day 0 of the experiment, the live cell density of the foregoing cells in logarithmic growth phase was adjusted to 5000 cells/ml, the cells were inoculated to a 96-well plate by an amount of 100 μl/well, and a blank group was set in parallel; and the inoculated cell plate was put into a 37° C., 5% CO2 incubator for overnight culture.
On day 1 of the experiment, the overnight cultured cell plate was taken out, the supernatant was discarded, 80 μl of serum-free RPMI 1640 medium was added to each well, and place the cells in an incubator for starvation cultivation for 4 h. The compound to be tested was dissolved in DMSO (dimethyl sulfoxide) to prepare a 10 mM compound stock solution. After starvation, the cell plate was taken out, and 80 μl of RPMI 1640+20% FBS medium was added to each well; the cell plate was placed on an automatic liquid dispenser D300e (Tecan), and a dosing program was set as follows: a maximum concentration of the compound to be tested was 30 μM, the compound was diluted with DMSO by a 3 times concentration gradient, there was a total of 10 concentrations, two duplicate wells were set for each concentration, and the DMSO final concentration in each well of the 96-well plate was 0.3%, v/v. The pre-prepared 10 mM stock solution of the compound to be tested was taken out, and the above dosing program was run for dosing. After the dosing was completed, the cell plate was placed in incubator and culture for 120 h.
On day 6 of the experiment, the cell plate was taken out, 50 μl of CellTiter-Go® (purchased from Promega) was added to each well, and fluorescence signal was measured on Envision (PerkinElmer) according to operation procedures in the manual.
A dose-effect curve: log(inhibitor) vs. response-Variable slope was fitted by using GraphPad Prism 5 software to obtain an IC50 value of the compound for inhibiting cell proliferation inhibition. A formula for calculating an inhibition rate was: […]
Wherein, • Signal value of tested compound: mean fluorescence signal of cells group+medium group+compound group; • Signal value of blank group: mean fluorescence signal of medium group; • Signal value of negative control group: mean fluorescence signal of cells group+medium group.

[1] = system: HCT116 MTAP−/− subcutaneous xenograft tumors; test: In vivo effect experiment of HCT116 MTAP−/− subcutaneous xenograft tumors in nude mice
Procedure: Female Nu/Nu nude mice (6-8 weeks old, Beijing Vital River Laboratory Animal Technology Co., Ltd.) were raised in an SPF animal room at a temperature of 20° C.-25° C., relative humidity of 40%-70%, and light and dark lighting for 12 hours each; and animals can freely drink and eat. The animals were adaptively fed before experiment.
HCT116 MTAP^−/− cells (Horizon) were cultured in vitro for proliferation, cells in logarithmic growth phase were collected and resuspended in a serum-free RPMI-1640 medium, and the cell concentration was adjusted to 6.0×10^7 cells/mL; and 100 μL of the cell suspension was injected subcutaneously into the right anterior armpit of each nude mouse by using a 1 mL syringe, the status of the animals was observed regularly, and the growth of transplanted tumors was monitored regularly.
When the tumor volume reached 100-300 mm^3, animals with too large or too small tumor volume or uncertain tumor formation were eliminated, and tumor bearing mice with good health and similar tumor volume were selected and randomly grouped, 6 mice in each group; the administration group received daily intragastric administration (AG-270: 50 mg/kg, with a structure shown below; compound to be tested: 1-7.5 mg/kg); and the control group was intragastrically administrated with the same volume of blank solvent. In the administration period, the tumor diameter was measured twice a week, the tumor volume was calculated, the animals were weighed, and their weight was recorded.
A formula for calculating tumor volume (TV) is: Tv=½×a×b^2, wherein a represents long diameter of the tumor, and b represents short diameter of the tumor.
Experimental data is calculated and statistically processed by using Microsoft Office Excel 2007 software. Unless otherwise specified, the data were expressed as mean±standard error (Mean SEM), and t-test is used for comparison between two groups.
Growth curves of tumor volume in each group are shown in FIG. 1, results of SAM test in tumors of each group are shown in FIG. 2, and the mean tumor volume and SEM in each group are shown in Table 2 below: […]

pIC50 (MAT2A enzyme): > 7.30
pIC50 (HCT116 MTAP −/− cells): > 6.82
Structure (SMILES): O=c1c(-c2ccc(OC(F)F)cc2)cn2ccc(C3CC3)nc2c1-c1ccc(OC(F)F)cc1 [Example 23, 2-cyclopropyl-7,9-bis[4-(difluoromethoxy)phenyl]-8H-pyrido[1,2-a]pyrimidin-8-one]
Tumor volume, mean volume ([1]; 1 mg/kg daily intragastric, day 1 of administration): 152 mm^3
Tumor volume, mean volume ([1]; 1 mg/kg daily intragastric, day 4 of administration): 198 mm^3
Tumor volume, mean volume ([1]; 1 mg/kg daily intragastric, day 6 of administration): 205 mm^3
Tumor volume, mean volume ([1]; 1 mg/kg daily intragastric, day 8 of administration): 238 mm^3
Tumor volume, mean volume ([1]; 1 mg/kg daily intragastric, day 11 of administration): 266 mm^3
Tumor volume, mean volume ([1]; 1 mg/kg daily intragastric, day 13 of administration): 284 mm^3
Tumor volume, mean volume ([1]; 1 mg/kg daily intragastric, day 15 of administration): 312 mm^3
Tumor volume, mean volume ([1]; 2.5 mg/kg daily intragastric, day 1 of administration): 153 mm^3
Tumor volume, mean volume ([1]; 2.5 mg/kg daily intragastric, day 4 of administration): 190 mm^3
Tumor volume, mean volume ([1]; 2.5 mg/kg daily intragastric, day 6 of administration): 196 mm^3
Tumor volume, mean volume ([1]; 2.5 mg/kg daily intragastric, day 8 of administration): 193 mm^3
Tumor volume, mean volume ([1]; 2.5 mg/kg daily intragastric, day 11 of administration): 208 mm^3
Tumor volume, mean volume ([1]; 2.5 mg/kg daily intragastric, day 13 of administration): 190 mm^3
Tumor volume, mean volume ([1]; 2.5 mg/kg daily intragastric, day 15 of administration): 191 mm^3

pIC50 (MAT2A enzyme): > 7.30
pIC50 (HCT116 MTAP −/− cells): > 6.82
Structure (SMILES): Cn1cc2cc(-c3cn4ccc(C5CC5)nc4c(-c4ccc(OC(F)F)cc4)c3=O)ccc2n1 [Example 25, 2-cyclopropyl-9-[4-(difluoromethoxy)phenyl]-7-(2-methyl-2H-indazol-5-yl)-8H-pyrido[1,2-a]pyrimidin-8-one]
Tumor volume, mean volume ([1]; 5 mg/kg daily intragastric, day 1 of administration): 152 mm^3
Tumor volume, mean volume ([1]; 5 mg/kg daily intragastric, day 4 of administration): 174 mm^3
Tumor volume, mean volume ([1]; 5 mg/kg daily intragastric, day 6 of administration): 186 mm^3
Tumor volume, mean volume ([1]; 5 mg/kg daily intragastric, day 8 of administration): 219 mm^3
Tumor volume, mean volume ([1]; 5 mg/kg daily intragastric, day 11 of administration): 305 mm^3
Tumor volume, mean volume ([1]; 5 mg/kg daily intragastric, day 13 of administration): 378 mm^3
Tumor volume, mean volume ([1]; 5 mg/kg daily intragastric, day 15 of administration): 417 mm^3

pIC50 (MAT2A enzyme): > 7.30
pIC50 (HCT116 MTAP −/− cells): > 6.82
Structure (SMILES): Cn1cc2cc(-c3cn4ccc(OCC(F)(F)F)nc4c(-c4ccc(OC(F)F)cc4)c3=O)ccc2n1 [Example 22, 9-[4-(difluoromethoxy)phenyl]-7-(2-methyl-2H-indazol-5-yl)-2-(2,2,2-trifluoroethoxy)-8H-pyrido[1,2-a]pyrimidin-8-one]
Tumor volume, mean volume ([1]; 7.5 mg/kg daily intragastric, day 1 of administration): 152 mm^3
Tumor volume, mean volume ([1]; 7.5 mg/kg daily intragastric, day 4 of administration): 173 mm^3
Tumor volume, mean volume ([1]; 7.5 mg/kg daily intragastric, day 6 of administration): 180 mm^3
Tumor volume, mean volume ([1]; 7.5 mg/kg daily intragastric, day 8 of administration): 212 mm^3
Tumor volume, mean volume ([1]; 7.5 mg/kg daily intragastric, day 11 of administration): 267 mm^3
Tumor volume, mean volume ([1]; 7.5 mg/kg daily intragastric, day 13 of administration): 324 mm^3
Tumor volume, mean volume ([1]; 7.5 mg/kg daily intragastric, day 15 of administration): 375 mm^3

pIC50 (MAT2A enzyme): > 7.30
pIC50 (HCT116 MTAP −/− cells): 6.00 to 6.40
Structure (SMILES): Cn1nccc1-c1c2cc(-c3cn4ccc(C5CC5)cc4c(-c4ccc5c(c4)OC(F)(F)O5)c3=O)ccc2nn1C [Example 7, 8-cyclopropyl-1-(2,2-difluoro-1,3-benzodioxol-5-yl)-3-[2-methyl-3-(2-methylpyrazol-3-yl)indazol-5-yl]quinolizin-2-one]
